{
  "source": "ChEMBL document CHEMBL5725788",
  "about": "“Tricyclic heterocyclic compounds as phosphoinositide 3-kinase inhibitors” (2017)",
  "key": {"[1]": {"molecular_target": "Phosphatidylinositol 4,5-bisphosphate 3-kinase catalytic subunit alpha isoform (Homo sapiens, UniProt P42336)", "sequence (P42336 whole entry, canonical isoform)": "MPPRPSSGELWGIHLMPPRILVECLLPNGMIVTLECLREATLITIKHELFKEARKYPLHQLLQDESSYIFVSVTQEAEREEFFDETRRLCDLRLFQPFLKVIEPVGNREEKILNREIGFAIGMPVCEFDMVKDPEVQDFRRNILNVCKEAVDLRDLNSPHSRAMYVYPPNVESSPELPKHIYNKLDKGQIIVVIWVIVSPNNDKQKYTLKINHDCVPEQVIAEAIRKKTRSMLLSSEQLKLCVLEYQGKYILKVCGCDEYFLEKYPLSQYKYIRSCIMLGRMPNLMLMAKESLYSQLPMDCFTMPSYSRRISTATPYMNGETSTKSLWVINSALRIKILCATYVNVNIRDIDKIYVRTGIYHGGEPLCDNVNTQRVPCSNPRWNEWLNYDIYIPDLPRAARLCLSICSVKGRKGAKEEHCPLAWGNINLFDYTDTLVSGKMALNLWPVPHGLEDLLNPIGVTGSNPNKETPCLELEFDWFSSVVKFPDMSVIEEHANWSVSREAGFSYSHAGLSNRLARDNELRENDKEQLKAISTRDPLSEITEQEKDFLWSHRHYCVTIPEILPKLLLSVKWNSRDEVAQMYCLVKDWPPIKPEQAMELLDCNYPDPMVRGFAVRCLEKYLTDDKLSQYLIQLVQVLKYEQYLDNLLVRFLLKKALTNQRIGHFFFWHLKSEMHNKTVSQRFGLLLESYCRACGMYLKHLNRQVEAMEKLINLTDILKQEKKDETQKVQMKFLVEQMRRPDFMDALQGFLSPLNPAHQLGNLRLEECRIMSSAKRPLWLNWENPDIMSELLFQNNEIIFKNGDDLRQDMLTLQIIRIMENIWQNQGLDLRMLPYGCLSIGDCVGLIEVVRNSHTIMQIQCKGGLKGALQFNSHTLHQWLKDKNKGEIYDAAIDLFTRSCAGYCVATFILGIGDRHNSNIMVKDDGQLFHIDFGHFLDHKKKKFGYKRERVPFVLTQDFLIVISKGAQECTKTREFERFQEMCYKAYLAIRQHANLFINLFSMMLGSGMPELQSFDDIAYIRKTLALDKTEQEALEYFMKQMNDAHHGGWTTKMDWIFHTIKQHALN", "assay": "(§1) Biochemical Assay: PI3K Isoform using biochemical assay."}, "[2]": {"molecular_target": "Phosphatidylinositol 4,5-bisphosphate 3-kinase catalytic subunit beta isoform (Homo sapiens, UniProt P42338)", "sequence (P42338 whole entry, canonical isoform)": "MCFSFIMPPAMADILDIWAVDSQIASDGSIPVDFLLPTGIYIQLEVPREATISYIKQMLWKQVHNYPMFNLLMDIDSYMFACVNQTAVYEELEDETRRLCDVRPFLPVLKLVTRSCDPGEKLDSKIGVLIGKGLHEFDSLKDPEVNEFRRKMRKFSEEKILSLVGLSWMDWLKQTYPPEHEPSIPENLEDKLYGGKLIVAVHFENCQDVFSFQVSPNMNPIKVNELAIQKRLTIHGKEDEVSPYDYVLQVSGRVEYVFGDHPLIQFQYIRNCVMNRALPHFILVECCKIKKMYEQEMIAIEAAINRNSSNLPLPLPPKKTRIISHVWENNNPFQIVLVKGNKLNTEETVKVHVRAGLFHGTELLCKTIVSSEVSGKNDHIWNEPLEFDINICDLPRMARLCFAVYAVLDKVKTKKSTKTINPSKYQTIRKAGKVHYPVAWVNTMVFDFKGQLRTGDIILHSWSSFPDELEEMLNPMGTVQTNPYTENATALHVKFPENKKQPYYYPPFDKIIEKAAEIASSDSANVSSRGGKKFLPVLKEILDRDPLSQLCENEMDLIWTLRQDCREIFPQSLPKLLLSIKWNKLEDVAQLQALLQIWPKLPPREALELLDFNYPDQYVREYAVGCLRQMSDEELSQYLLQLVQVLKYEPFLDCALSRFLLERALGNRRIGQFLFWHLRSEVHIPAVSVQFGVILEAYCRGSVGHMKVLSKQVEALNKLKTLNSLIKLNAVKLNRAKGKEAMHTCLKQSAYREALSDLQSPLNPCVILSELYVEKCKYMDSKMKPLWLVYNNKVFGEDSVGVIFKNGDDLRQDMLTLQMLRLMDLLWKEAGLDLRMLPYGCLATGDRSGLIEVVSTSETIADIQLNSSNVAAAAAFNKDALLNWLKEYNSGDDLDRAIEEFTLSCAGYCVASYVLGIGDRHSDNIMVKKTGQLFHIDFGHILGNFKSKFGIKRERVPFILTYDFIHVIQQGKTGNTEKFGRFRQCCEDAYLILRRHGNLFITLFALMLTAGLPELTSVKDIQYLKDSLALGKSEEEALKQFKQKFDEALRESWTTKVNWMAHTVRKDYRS", "assay": "as §1"}, "[3]": {"molecular_target": "T1, Phosphatidylinositol 4,5-bisphosphate 3-kinase catalytic subunit delta isoform (Homo sapiens, UniProt O00329)", "T1 sequence (O00329 whole entry)": "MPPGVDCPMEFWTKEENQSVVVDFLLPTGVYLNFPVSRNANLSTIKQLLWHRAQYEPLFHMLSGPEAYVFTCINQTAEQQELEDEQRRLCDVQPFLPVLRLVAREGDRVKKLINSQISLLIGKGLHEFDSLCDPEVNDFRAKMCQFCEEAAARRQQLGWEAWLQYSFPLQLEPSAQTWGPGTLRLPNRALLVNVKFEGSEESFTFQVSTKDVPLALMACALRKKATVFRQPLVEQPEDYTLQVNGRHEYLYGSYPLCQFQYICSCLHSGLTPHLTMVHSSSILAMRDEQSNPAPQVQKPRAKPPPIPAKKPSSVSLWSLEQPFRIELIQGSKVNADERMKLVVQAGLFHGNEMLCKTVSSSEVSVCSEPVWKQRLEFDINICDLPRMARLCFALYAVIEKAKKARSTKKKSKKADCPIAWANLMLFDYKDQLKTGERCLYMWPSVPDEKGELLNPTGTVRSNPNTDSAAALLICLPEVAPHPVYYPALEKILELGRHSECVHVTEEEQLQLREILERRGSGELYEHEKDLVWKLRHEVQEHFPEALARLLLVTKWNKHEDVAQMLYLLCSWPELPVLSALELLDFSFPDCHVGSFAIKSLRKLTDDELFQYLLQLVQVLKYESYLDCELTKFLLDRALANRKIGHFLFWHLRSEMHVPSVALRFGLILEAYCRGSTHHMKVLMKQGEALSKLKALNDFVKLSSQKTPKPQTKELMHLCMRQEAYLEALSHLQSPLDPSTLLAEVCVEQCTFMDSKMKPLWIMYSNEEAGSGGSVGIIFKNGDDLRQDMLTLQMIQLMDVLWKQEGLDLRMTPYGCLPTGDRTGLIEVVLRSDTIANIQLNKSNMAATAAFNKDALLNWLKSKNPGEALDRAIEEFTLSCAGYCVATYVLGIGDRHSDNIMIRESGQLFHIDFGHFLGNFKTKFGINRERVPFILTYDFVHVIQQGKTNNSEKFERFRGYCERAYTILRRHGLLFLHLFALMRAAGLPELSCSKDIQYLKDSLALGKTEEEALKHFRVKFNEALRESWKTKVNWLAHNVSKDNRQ", "assay": "as §1"}, "[4]": {"molecular_target": "Phosphatidylinositol 4,5-bisphosphate 3-kinase catalytic subunit gamma isoform (Homo sapiens, UniProt P48736)", "sequence (P48736 whole entry, canonical isoform)": "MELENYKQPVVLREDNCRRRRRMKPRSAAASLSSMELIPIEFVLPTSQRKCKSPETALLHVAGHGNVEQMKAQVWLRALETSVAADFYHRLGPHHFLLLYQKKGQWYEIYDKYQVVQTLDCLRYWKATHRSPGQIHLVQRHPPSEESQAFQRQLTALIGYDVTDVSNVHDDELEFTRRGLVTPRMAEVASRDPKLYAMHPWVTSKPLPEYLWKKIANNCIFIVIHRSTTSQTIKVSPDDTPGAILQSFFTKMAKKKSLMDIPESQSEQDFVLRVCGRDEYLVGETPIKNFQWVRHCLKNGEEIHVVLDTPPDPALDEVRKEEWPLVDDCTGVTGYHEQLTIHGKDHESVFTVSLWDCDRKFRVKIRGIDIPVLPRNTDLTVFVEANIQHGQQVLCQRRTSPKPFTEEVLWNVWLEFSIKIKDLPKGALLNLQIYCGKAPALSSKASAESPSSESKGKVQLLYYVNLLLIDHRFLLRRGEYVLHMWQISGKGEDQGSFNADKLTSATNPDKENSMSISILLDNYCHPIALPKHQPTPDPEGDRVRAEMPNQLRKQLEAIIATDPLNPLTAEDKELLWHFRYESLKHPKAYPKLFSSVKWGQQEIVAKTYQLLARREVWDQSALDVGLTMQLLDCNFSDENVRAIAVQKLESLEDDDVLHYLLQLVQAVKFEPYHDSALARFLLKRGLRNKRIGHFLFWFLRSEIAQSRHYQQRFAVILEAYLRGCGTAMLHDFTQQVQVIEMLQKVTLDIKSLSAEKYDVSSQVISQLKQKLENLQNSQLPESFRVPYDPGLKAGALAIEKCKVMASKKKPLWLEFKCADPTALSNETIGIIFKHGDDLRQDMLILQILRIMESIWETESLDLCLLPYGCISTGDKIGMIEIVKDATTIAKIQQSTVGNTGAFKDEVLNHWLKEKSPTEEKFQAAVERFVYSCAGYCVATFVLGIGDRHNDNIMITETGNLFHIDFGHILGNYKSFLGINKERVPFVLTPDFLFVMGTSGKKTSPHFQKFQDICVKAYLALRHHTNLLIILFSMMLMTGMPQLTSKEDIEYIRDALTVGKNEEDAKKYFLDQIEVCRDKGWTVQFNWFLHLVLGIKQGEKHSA", "assay": "as §1"}},
  "data": [
    {"smiles": "c1cc(-c2nc(N3CCOCC3)c3oc4ncc(CN5CCCCC5)cc4c3n2)c2cc[nH]c2c1", "values": [
      {"measurement": "IC50", "setting": "[1]", "result": 508, "unit": "nM"},
      {"measurement": "IC50", "setting": "[2]", "result": 503, "unit": "nM"},
      {"measurement": "IC50", "setting": "[3]", "result": 10, "unit": "nM"},
      {"measurement": "IC50", "setting": "[4]", "result": 4950, "unit": "nM"}
    ]}
  ]
}
